Data published in BindingDB's records for patent US20250289799 (Jiangsu Yahong Meditech Co., 2025).

The molecules below were run against Ubiquitin carboxyl-terminal hydrolase 1/WD repeat-containing protein 48 (Homo sapiens, UniProt O94782+Q8TAF3) (assay: In Vitro USP1  Inhibitory Activity).
Experimental: Experimental Methods1) Preparation of 1× assay buffer: 1× assay buffer (modified Tris buffer) was prepared;2) Compound dilution: The compound was transferred to the assay plate by Echo.

Chain of Ubiquitin carboxyl-terminal hydrolase 1/WD repeat-containing protein 48 (O94782 whole entry): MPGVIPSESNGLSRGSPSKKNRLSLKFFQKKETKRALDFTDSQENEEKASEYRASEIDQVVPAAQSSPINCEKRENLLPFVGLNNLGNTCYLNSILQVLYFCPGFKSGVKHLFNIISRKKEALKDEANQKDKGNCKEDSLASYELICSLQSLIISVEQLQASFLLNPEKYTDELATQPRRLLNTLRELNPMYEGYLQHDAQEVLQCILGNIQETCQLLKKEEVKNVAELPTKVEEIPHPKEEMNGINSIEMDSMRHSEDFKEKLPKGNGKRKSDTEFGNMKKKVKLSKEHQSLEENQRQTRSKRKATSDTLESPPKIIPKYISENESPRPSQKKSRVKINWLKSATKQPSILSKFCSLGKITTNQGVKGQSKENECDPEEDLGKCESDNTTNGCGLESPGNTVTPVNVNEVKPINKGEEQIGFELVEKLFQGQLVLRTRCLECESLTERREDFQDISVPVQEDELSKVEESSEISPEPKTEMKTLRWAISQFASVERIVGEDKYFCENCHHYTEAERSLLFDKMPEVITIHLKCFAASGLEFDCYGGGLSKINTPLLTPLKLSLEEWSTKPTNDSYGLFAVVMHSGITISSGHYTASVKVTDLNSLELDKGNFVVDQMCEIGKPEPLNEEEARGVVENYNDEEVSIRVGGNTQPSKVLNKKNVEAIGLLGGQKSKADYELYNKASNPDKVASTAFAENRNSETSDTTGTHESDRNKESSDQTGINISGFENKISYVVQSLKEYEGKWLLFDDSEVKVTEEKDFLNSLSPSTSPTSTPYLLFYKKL
Chain of Ubiquitin carboxyl-terminal hydrolase 1/WD repeat-containing protein 48 (Q8TAF3 whole entry): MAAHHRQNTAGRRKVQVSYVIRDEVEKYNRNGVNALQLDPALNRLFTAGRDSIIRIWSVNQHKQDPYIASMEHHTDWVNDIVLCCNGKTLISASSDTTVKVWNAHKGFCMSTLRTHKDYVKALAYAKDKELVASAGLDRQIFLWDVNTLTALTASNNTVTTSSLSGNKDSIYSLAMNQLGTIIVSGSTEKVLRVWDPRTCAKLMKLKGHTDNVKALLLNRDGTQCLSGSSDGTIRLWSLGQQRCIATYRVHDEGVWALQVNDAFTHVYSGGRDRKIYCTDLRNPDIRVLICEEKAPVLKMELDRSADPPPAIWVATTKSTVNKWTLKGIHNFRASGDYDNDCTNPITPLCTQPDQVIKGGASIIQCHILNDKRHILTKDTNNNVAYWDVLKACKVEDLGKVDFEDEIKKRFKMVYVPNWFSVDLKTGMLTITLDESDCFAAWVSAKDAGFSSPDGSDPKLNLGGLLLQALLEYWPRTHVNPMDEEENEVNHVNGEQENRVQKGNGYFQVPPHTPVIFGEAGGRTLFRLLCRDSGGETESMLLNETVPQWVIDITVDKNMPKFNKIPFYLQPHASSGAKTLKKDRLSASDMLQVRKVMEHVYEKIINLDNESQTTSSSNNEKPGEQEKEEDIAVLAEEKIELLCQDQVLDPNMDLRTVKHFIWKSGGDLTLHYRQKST

| SMILES | IC50 |
| --- | --- |
| Cc1cc(C(F)(F)F)nn1-c1ccc(CNc2nc(-c3c(Cl)cnn3C(C)C)nc3ccoc23)cc1 [US20250289799, Example 168] | 1.2 nM |
| COc1cnc(-c2ccccc2C2CC2)nc1NCc1ccc(-c2nc(C(F)(F)F)cn2C)cc1 [US20250289799, Example 169] | 0.8 nM |
| COc1cnc(-c2ccccc2C2CC2)nc1NCc1ccc(-n2nc(C(F)(F)F)cc2C)cc1 [US20250289799, Example 170] | 2.9 nM |
| COc1cc(-c2nc(C(F)(F)F)cn2C)ccc1CNc1nc(-c2ccccc2C2CC2)ncc1OC [US20250289799, Example 171] | 2.3 nM |
| COc1cc(CNc2nc(-c3ccccc3C3CC3)ncc2OC)ccc1-c1nc(C(F)(F)F)cn1C [US20250289799, Example 172] | 12 nM |
| Cn1cc(C(F)(F)F)nc1-c1ccc(CNc2nc(-c3ccccc3C3CC3)nc3ccoc23)cc1 [US20250289799, Example 173] | 1 nM |
| Cc1cc(C(F)(F)F)nn1-c1ccc(CNc2nc(-c3ccccc3C3CC3)nc3ccoc23)cc1 [US20250289799, Example 174] | 5.1 nM |
| COc1cc(-c2nc(C(F)(F)F)cn2C)ccc1CNc1nc(-c2ccccc2C2CC2)nc2ccoc12 [US20250289799, Example 175] | 3.6 nM |
| COc1cc(CNc2nc(-c3ccccc3C3CC3)nc3ccoc23)ccc1-c1nc(C(F)(F)F)cn1C [US20250289799, Example 176] | 4 nM |
| COc1cnc(-c2c(OC)cnn2C(C)C)nc1N(C)CC1CCN(c2ccccn2)CC1 [US20250289799, Example 177] | 75 nM |
| COc1cnc(-c2c(OC)cnn2C(C)C)nc1NCc1ccc(-c2ccccn2)cc1 [US20250289799, Example 178] | 110 nM |
| COc1cnc(-c2c(OC)cnn2C(C)C)nc1NCC1CCN(c2nc(C(F)(F)F)cn2C)CC1 [US20250289799, Example 179] | 56 nM |
| COc1cnc(-c2c(OC)cnn2C(C)C)nc1NCc1ccc(-c2nc(C(F)(F)F)cn2C)cc1 [US20250289799, Example 180] | 15 nM |
| COc1cnn(C(C)C)c1-c1nc(NCc2ccc(-c3ccccn3)cc2)c2occc2n1 [US20250289799, Example 181] | 27 nM |
| COc1cnn(C(C)C)c1-c1nc(NCc2ccc(-n3nc(C(F)(F)F)cc3C)cc2)c2occc2n1 [US20250289799, Example 182] | 7.4 nM |
| COc1cnc(-c2c(OC)cnn2C2CC2)nc1NCc1ccc(-c2ccccn2)cc1 [US20250289799, Example 183] | 164 nM |
| COc1cnc(-c2c(OC)cnn2C2CC2)nc1NCC1CCN(c2nc(C(F)(F)F)cn2C)CC1 [US20250289799, Example 184] | 94 nM |
| COc1cnn(C2CC2)c1-c1ncc(OC(F)F)c(NCc2ccc(-c3nc(C(F)(F)F)cn3C)cc2)n1 [US20250289799, Example 185] | 9.8 nM |
| COc1cnc(-c2c(C)noc2C(C)C)nc1N(C)CC1CCN(c2ccccn2)CC1 [US20250289799, Example 186] | 66 nM |
| COc1cnc(-c2c(C)noc2C(C)C)nc1NCC1CCN(c2nc(C(F)(F)F)cn2C)CC1 [US20250289799, Example 187] | 23.5 nM |
| COc1cnc(-c2c(C)noc2C(C)C)nc1NCc1ccc(-c2nc(C(F)(F)F)cn2C)cc1 [US20250289799, Example 188] | 15 nM |
| Cc1noc(C(C)C)c1-c1nc(NCc2ccc(-c3ccccn3)cc2)c2occc2n1 [US20250289799, Example 189] | 16 nM |

| SMILES | IC50 |
| --- | --- |
| Cc1noc(C(C)C)c1-c1ncc(OC(F)F)c(NCc2ccc(-c3nc(C(F)(F)F)cn3C)cc2)n1 [US20250289799, Example 190] | 33 nM |
| COc1cnc(-c2c(Cl)cnn2C2CC2)nc1N(C)Cc1ccc(-c2nc(C(F)(F)F)cn2C)cc1 [US20250289799, Example 191] | 4.3 nM |
| COc1cnc(-c2c(Cl)cnn2C2CC2)nc1NCc1ccc(-c2nc(C(F)(F)F)cn2C)cc1 [US20250289799, Example 192] | 3.8 nM |
| COc1cnc(-c2cncnc2C2CC2)nc1N(C)Cc1ccc(-c2nc(C(F)(F)F)cn2C)cc1 [US20250289799, Example 193] | 87 nM |
| COc1cnc(-c2cncnc2C2CC2)nc1NCc1ccc(-c2nc(C(F)(F)F)cn2C)cc1 [US20250289799, Example 194] | 51 nM |
| COc1cnc(-c2cncnc2C2CC2)nc1NCc1ccc(-c2nc(C(F)F)cn2C)cc1 [US20250289799, Example 195] | 243 nM |
| Cn1cc(C(F)(F)F)nc1-c1ccc(CNc2nc(-c3cncnc3C3CC3)nc3ccoc23)cc1 [US20250289799, Example 196] | 12 nM |
| Cn1cc(C(F)F)nc1-c1ccc(CNc2nc(-c3cncnc3C3CC3)nc3ccoc23)cc1 [US20250289799, Example 197] | 133 nM |
| COc1cnc(-c2c(C)cnn2C2CC2)nc1N(C)Cc1ccc(-c2nc(C(F)(F)F)cn2C)cc1 [US20250289799, Example 198] | 3.2 nM |
| COc1cnc(-c2c(C)cnn2C2CC2)nc1NCc1ccc(-c2nc(C(F)(F)F)cn2C)cc1 [US20250289799, Example 199] | 5.6 nM |
| COc1cnc(-c2c(C)cnn2C(C)C)nc1N(C)Cc1ccc(-c2nc(C(F)(F)F)cn2C)cc1 [US20250289799, Example 200] | 2.8 nM |
| COc1cnc(-c2c(C)cnn2C(C)C)nc1N(C)Cc1ccc(-n2nc(C(F)(F)F)cc2C)cc1 [US20250289799, Example 201] | 12 nM |
| COc1cnc(-c2c(C)cnn2C(C)C)nc1NCc1ccc(-c2nc(C(F)(F)F)cn2C)cc1 [US20250289799, Example 202] | 3 nM |
| C#Cc1cnc(-c2c(C)cnn2C(C)C)nc1NCc1ccc(-c2nc(C(F)(F)F)cn2C)cc1 [US20250289799, Example 203] | 1.4 nM |
| COc1cnc(-c2c(OC)ncnc2C2CC2)nc1N(O)Cc1ccc(-c2nc(C(F)(F)F)cn2C)cc1 [US20250289799, Example 204] | 25 nM |
| COc1cnc(-c2c(C)cnn2C2CC2)nc1N(O)Cc1ccc(-c2nc(C(F)(F)F)cn2C)cc1 [US20250289799, Example 205] | 43 nM |
| COc1cnc(-c2c(OC)ncnc2C2CC2)nc1N(C#N)Cc1ccc(-c2nc(C(F)(F)F)cn2C)cc1 [US20250289799, Example 206] | 3.5 nM |
| COc1cnc(-c2c(OC)ncnc2C2CC2)nc1N(C)CC12C3C4C1C1C2C3C41c1nc(C(F)(F)F)cn1C (centres undefined) [US20250289799, Example 207] | 3.5 nM |
| COc1cnc(-c2c(Cl)cnn2C(C)C)nc1NCC12CCC(c3nc(C(F)(F)F)cn3C)(CC1)OC2 [US20250289799, Example 209] | 1.6 nM |
| COc1cnc(-c2c(Cl)cnn2C(C)C)nc1N(C)CC12CCC(c3nc(C(F)(F)F)cn3C)(CC1)OC2 [US20250289799, Example 211] | 6.1 nM |
| COc1cnc(-c2c(OC)ncnc2C2CC2)nc1N(C)CC12CCC(c3nc(C(F)(F)F)cn3C)(CC1)OC2 [US20250289799, Example 212] | 19 nM |
| COc1cnc(-c2c(OC)ncnc2C2CC2)nc1NCC12C3C4C1C1C2C3C41c1nc(C(F)(F)F)cn1C1CC1 (centres undefined) [US20250289799, Example 216] | 1.4 nM |
